Tests used:
Type in all cases: biochemical
[1] = target: T1, COX-2 (Homo sapiens, UniProt P35354); test: In vitro COX-2 inhibitory assay (fluorometric screening kit, Biovision)
T1 construct: purchased Biovision
T1 sequence (P35354 18-604): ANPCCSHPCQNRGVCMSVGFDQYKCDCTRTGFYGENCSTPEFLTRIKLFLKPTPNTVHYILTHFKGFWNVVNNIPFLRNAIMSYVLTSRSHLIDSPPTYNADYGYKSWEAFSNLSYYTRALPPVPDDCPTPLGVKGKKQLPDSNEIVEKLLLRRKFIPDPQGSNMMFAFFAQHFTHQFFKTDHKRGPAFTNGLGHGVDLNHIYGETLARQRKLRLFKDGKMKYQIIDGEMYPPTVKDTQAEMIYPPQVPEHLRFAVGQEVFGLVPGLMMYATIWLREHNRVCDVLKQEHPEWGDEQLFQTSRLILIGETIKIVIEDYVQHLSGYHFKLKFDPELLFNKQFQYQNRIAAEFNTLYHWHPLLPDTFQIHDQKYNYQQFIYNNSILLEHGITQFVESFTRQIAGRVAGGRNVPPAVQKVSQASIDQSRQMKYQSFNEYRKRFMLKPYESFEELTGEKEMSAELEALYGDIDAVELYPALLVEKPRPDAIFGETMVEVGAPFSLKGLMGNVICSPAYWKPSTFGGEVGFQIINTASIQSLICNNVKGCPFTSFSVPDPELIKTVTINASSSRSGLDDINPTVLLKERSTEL
Experimental: (§1) The in vitro inhibitory assays of the isolated compounds against COX-1 and COX-2 were determined by using fluorometric-based screening kits (Biovision, Switzerland) according to the manufacturer’s protocol. These assays are based on the detection of the florescence produced by prostaglandin G2, i.e., the intermediate product produced by the COX-1 and -2 enzymes. The enzymes solutions were prepared by adding […] of dd. H2O to the lyophilized enzymes in the kit. The diluted COX cofactor was formulated by mixing the COX assay buffer (398 mL) and COX Cofactor (2 mL). 5 mL of arachidonic acid were added to 5 mL of NaOH and then diluted by 90 mL of double distilled H2O to produce dilute arachidonic acid/NaOH solution. Subsequently, all these prepared solutions were mixed to produce the reaction mixture ([…]). Different concentrations of the test compounds were added to the previous solution. The reaction mixtures were then incubated at 25 °C for 10 min. […] These assays of test compounds, blank, and reference inhibitors were carried out in triplicates. IC50 values were calculated by GraphPad software (version 7.0), where the percentage inhibitions were plotted versus the log concentrations. Dividing the IC50 calculated for […] by the IC50 calculated for […] was applied to determine the Selectivity index (SI).

[2] = target: T2, COX-1 (Ovis aries, UniProt P05979); test: In vitro COX-1 inhibitory assay (fluorometric screening kit, Biovision)
T2 construct: purchased Biovision
T2 sequence (P05979 25-600): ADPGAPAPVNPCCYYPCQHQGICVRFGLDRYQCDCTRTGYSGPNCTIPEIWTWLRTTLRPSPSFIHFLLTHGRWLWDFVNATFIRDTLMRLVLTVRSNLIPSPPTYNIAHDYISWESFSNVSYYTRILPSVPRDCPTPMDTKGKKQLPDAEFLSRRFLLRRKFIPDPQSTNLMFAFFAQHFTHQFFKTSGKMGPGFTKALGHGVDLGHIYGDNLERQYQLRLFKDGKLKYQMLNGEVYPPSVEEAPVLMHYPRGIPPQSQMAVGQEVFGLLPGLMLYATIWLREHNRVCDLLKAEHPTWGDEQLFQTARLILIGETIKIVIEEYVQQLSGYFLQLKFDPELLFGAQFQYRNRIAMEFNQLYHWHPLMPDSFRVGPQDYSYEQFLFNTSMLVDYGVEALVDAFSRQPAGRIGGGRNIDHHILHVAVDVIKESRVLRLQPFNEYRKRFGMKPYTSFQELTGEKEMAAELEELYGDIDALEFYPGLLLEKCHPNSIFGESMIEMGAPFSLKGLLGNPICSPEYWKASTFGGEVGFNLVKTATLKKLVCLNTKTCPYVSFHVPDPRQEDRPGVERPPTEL
Experimental: as §1

[3] = Hydrogen peroxide scavenging activity
Experimental: The residual H2O2 was determined colorimetrically. Briefly, 20 µL of the sample was added to 500 µL of H2O2 and incubated for 10 min., at 37 °C. […] The optical density of the colored product was measured at 510 nm using ascorbic acid as a positive control. The percentage of H2O2 scavenging activity was calculated by using the following formula (Equation (1)). (1) Scavenging activity=A control – A sample/A control×100 IC50 of each sample was determined at four different concentrations using Graph pad prism 7 software.

[4] = Superoxide radical scavenging activity
Experimental: The superoxide anion scavenging activity was measured as previously performed by […] et al., 2007 [57]. […] The reaction was initiated by adding 0.1 mL PMS solution (0.12 mM) to the mixture, incubated at 25 °C for 5 min., and the optical density was measured at 560 nm, compared to the reference ascorbic acid. The percentage inhibition was calculated using the following formula, Equation (2). (2) Superoxide scavenging activity=A control - A sample/A control×100 IC50 was calculated using Graph pad prism 7 software by performing the test at four different concentrations.

SMILES | IC50 [1] [µM] | IC50 [2] [µM] | COX-2/COX-1 ([1]; selectivity index, ratio of IC50 values) | H2O2 scavenging IC50 [3] [µg/mL] | superoxide radical scavenging IC50 [4] [µg/mL]
CCCCCCCC/C=C\CCCCCCCC(=O)O [Compound 3, oleic acid] | > 100 | > 100 |  |  | 
CC(C)CCC[C@@H](C)[C@H]1CC[C@H]2[C@@H]3CC=C4C[C@@H](O)CC[C@]4(C)[C@H]3CC[C@]12C [Compound 5, cholesterol] | > 100 | > 100 |  |  | 
CCCCCCCCCCc1ccccc1O [Compound 6, 2-decylphenol] | > 100 | > 100 |  |  | 
O=C1O[C@H]([C@@H](O)CO)C(O)=C1O [ascorbic acid] |  |  |  | 174.2 | 164

Other lines, results leading:

IC50 [1] [µM] | IC50 [2] [µM] | COX-2/COX-1 ([1]; selectivity index, ratio of IC50 values) | H2O2 scavenging IC50 [3] [µg/mL] | superoxide radical scavenging IC50 [4] [µg/mL] | SMILES
> 100 | > 100 |  |  |  | CCCCCC/C=C\CCCCCCCC(=O)O [Compound 1, palmitoleic acid]
> 100 | > 100 |  |  |  | CCCCCCCCCCCCCCCC(=O)O [Compound 2, palmitic acid]
2.41 ± 0.2 | 18.5 ± 0.4 | 0.13 |  |  | CCCCCCC=CCC=CCC=CCC=CCCCCC(=O)O [Compound 4, 6,9,12,15-docosatetraenoic acid]

From article PMC8625051, “Wound Healing Metabolites from Peters’ Elephant-Nose Fish Oil: An In Vivo Investigation Supported by In Vitro and In Silico Studies” (Marine Drugs, 2021)
